These results are taken from patent US5215889A, “Catalytic and reactive polypeptides and methods for their preparation and use” (The Regents of the University of California, priority 1989, dated 1993).

The test system of data set [1] is monoclonal antibody (IgG) generated against hapten 2 (benzylamine 2). The data set can be described thus: Antibody-catalyzed elimination of HF from β-fluoroketone. The format is biochemical, Balb/c mice. As to the method:
Solutions of substrate 1 were incubated with 2 μM Ig at 37° C. in 10 mM Bis-tris-HCl, 100 mM NaCl pH 6.0, at substrate concentration between 50 and 500 μM. Protein molarity was determined by absorbance at 280 nm using ε^0.1% =1.37 and a molecular weight of 150 kD for IgG. Elimination was followed spectrophotometrically. […] One of these antibodies was characterized further. […] The kinetics of the reaction are consistent with the simple Michaelis-Menten rate expression: [drawing 3] These values afford a kcat /kuncat of 1480 at pH 6.0.
Values of Ki were determined at 10 mM Bis-tris-HCl, 100 mM NaCl, pH 6.0 (37° C.). Substrate concentrations were 200 and 500 μM, Ig concentration was 2 μM, hapten concentration was […] to 1 μM.
The pH dependence of kcat was also determined under the same reaction conditions. Values of kcat are as follows: kcat =0.083 min^-1 at pH 5.5, kcat =0.11 at pH 5.75, kcat =0.188 at pH 6.0, kcat =0.3 at pH 6.5 and kcat =0.43 at pH 7.5. A plot of kcat vs. kcat [H^+ ] gives a pKa of 6.1 for the active site base. It is very likely that this corresponds to a high pKa carboxylate based on the strategy for generating the antibody. Chemical modification experiments with diazoacetamide support this hypothesis.

Data set [2] deals with T1, MOPC315 Fab, thiolated (labeled with bromoketone 4; tyrosine 34L derivatized) (Mus musculus, UniProt P01729+P01822+P01844).
T1 construct: made in house; host or cells: Fab by papain digestion of reduced and alkylated MOPC315 IgA (murine myeloma)
T1 sequence (P01729+P01844 fused, one chain of several): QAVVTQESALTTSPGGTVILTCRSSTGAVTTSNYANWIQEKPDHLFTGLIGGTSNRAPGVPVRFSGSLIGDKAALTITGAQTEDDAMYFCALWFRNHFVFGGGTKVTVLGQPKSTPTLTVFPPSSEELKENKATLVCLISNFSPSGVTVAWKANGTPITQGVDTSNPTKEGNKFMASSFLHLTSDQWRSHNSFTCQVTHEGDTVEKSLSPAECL
Briefly: Fluorescence quenching binding of substrate by thiolated Fab. Also noted: species or system murine. The source says:
The reaction kinetics are consistent with the formation of a Michaelis complex (FIG. 6). […] Neither the uncleaved affinity-labeled antibody nor the iodoacetamide-alkylated antibody accelerated the rate of the thiolysis reaction above the background rate. The stoichiometry of product release corresponded to 1.0 coumarin to 1.0 Fab-SH. […] However, the introduction of both a thiol and a general base into the label may lead to a catalytic system (Bruice (1959) J. Am. Chem. Soc. 81:5444 and Street et al. (1985) J. Am. Chem. Soc. 107:7669).

A further data set concerns the target underivatized MOPC 315. Briefly: Fluorescence quenching binding in PBS. Also on record: species or system murine. As to the method:
The hydrolysis of coumarin esters 1a-1d (FIG. 9) by the semisynthetic antibody was assayed in the presence and absence of 1 μM derivatized Fab at varying pH, at 30° C. (Morpholineethanesulfonic acid (100 mM) as used as the buffer in the range of pH 5 to 7. Sodium phosphate (100 mM) was used in the range of pH 6 to 8 and tris-HCl (100 mM) was used in the range of pH 7 to 9.) The release of free coumarin was quantitated fluorometrically, exciting at 355 nm and measuring emission at 455 nm. Antibody rates were corrected by subtracting the rate of cleavage in the absence of antibody. […] This value is almost identical to the KD (5 μM) for the binding of N-DNP-glycine to underivatized MOPC 315, (determined by fluorescence quenching in PBS). […] At pH>8, the unmodified Fab slightly accelerates the cleavage of ester 1b in a stoichiometric reaction, presumably involving modification of an amino acid side chain near the binding site. However, this reaction is not observed in the catalysis by the imidazole-derivatized antibody, where the reactive antibody side-chain is probably inaccessible. The catalytic activity of the semisynthetic antibody is destroyed by treatment with diethylpyrocarbonate, an imidazole-specific reagent. […]

In data set [3] the target is T2, MOPC315 Fab, thiolated (affinity-labeled with 2 and cleaved; free thiol at lysine 52H) (Mus musculus, UniProt P01729+P01822+P01878).
T2 construct: made in house; host or cells: Fab by papain digestion of reduced and alkylated MOPC315 IgA (murine myeloma)
T2 sequence (P01822+P01878 fused): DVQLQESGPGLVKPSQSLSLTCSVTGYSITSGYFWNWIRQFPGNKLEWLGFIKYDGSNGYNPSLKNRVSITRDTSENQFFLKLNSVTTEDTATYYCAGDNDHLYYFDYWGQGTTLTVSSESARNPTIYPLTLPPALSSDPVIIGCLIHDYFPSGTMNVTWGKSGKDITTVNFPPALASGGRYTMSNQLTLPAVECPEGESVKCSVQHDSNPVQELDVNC
T2 sequence (P01729 20-129): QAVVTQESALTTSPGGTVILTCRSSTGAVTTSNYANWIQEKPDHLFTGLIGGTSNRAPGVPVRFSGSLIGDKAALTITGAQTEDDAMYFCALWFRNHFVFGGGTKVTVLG
The data set can be described thus: Thiolysis of DNP coumarin ester by thiolated Fab. It is filed as biochemical, murine. As to the method: Cleavage of DNP coumarin esters 14 and 15 by the thiol-containing antibodies was assayed in the presence of 0.1M NaCl, 50 mM sodium phosphate, pH 7.0, with 24 μM dithiothreitol at 10° C. The release of free coumarin was quantitated fluorometrically, exciting at 355 nm and measuring emission at 455 nm. The S-thiopyridyl Fab was first dialyzed against assay buffer, 30 min. prior to the assays, an aliquot of the thiopyridyl Fab (0.15 mg in 0.19 ml) was reduced with 3.8 mM dithiothreitol at 20° C. For each assay, reduced, thiolated Fab (15 μg in 18.8 μl) was diluted with assay buffer (2.95 ml) so that the net concentrations of thiolated Fab and of dithiothreitol were 0.1 μM and 24 μM, respectively. After equilibrating, the substrate was added (30 μl of a stock solution in acetonitrile) and the solution mixed for 10 sec. before monitoring fluorescence change. Antibody rates were corrected by subtracting the rate of cleavage in the absence of Fab.
The reaction kinetics are consistent with the formation of a Michaelis complex (FIG. 6). […] Neither the uncleaved affinity-labeled antibody nor the iodoacetamide-alkylated antibody accelerated the rate of the thiolysis reaction above the background rate. The stoichiometry of product release corresponded to 1.0 coumarin to 1.0 Fab-SH. […]

Data set [4] addresses T3, MOPC315 Fv, wild type, Fv(315) (Mus musculus, UniProt P01729+P01822).
T3 construct: The Fv fragment (26 kD) is a heterodimer consisting of two peptides, VH (14 kD) and VL (12 kD); made in house; host or cells: MOPC315 myeloma ascites (Balb/c mice), IgA cleaved with pepsin
The data set can be described thus: Hydrolysis of DNP coumarin esters 1-3 by Fv. The format is biochemical, murine. The settings on record: pH 6.8. As to the method:
(§1) FIG. 22 is a Lineweaver-Burke plot of initial rate data obtained for the hydrolysis of 1 as described in Example 6 of the Experimental section herein. Four μl of a 100-fold concentrated solution of substrate 1 in DMSO was added to the 400 μl of Fv (115 nM) in buffer A while monitoring 7-hydroxycoumarin fluorescence at 25° C. (excitation:355nm; emission: 457 nm). A standard of 7-hydroxycoumarin was added at the completion of each assay to assess quenching of coumarin fluorescence by DNP at high substrate concentrations. The buffer background rate was subtracted from the initial rates. Each point represents the average velocity of at least duplicate experiments. Factor X, Factor Xa, or Russell's viper venom had no hydrolytic activity towards 1.
(§2) The ability of wild type and mutant Fvs to hydrolyze esters 1-3 was assayed by measuring the rate of coumarin release fluorimetrically at pH 6.8 (Pollack et al. (1988) supra; Pollack (1989) supra). […] Under these conditions, Fv(Y34HL) turns over at least 11 times and still retains 44% of its activity. The loss of activity is likely due to the accumulation of the inhibitory reaction product 8. […] Ester 2 was a poor substrate (kcat (2)=0.015 min^-1); and the hydrolysis of 3 was not accelerated (kcat (3)<0.005 min^-1). […] The initial rate of hydrolysis of 1 by Fv(Y34HL) at pH 6.8 is approximately 45-fold faster than the reaction with either […] (Table 2). At pH 8.7, the reactivity of Fv(Y34HL) and Fv(315) both increase, but differentially (v[Fv(Y34HL ]/v[Fv(315)]=3.3, at 10 μM 1). Under these conditions Fv(Y34HL) catalytically hydrolyzes 1 while Fv(315) reacts stoichiometrically. The increased reactivity of Fv(315) at higher pH may be due to deprotonation of the tyrosine hydroxyl and subsequent transesterification to form a relatively stable phenol ester.

Data set [5] addresses T4, MOPC315 Fv variant Fv(Y34HL), Tyr 34L to His (Mus musculus, UniProt P01729+P01822, Y53H).
T4 construct: Antibody-derived VH was prepared by denaturing ion exchange chromatography of authentic MOPC315 Fv, obtained from pepsin digestion of purified IgA; lambda cII fusion with Factor Xa site (IleGluGlyArg) (N, cleaved yes); made in house; host or cells: VL: E. coli MZ1 (cII fusion, inclusion bodies); VH: pepsin-cleaved MOPC315 IgA from mouse ascites
Briefly: Hydrolysis of DNP coumarin esters 1-3 by Fv. The format is biochemical, murine. Conditions: pH 6.8; SE (n = 3). As to the method: as §1, §2

In data set [6] the test system is antibody 15F1-3B1 (IgG, thymine dimer specific). The data set can be described thus: Antibody-sensitized photocleavage of thymine dimer. It is filed as biochemical, Balb/c mice. As to the method: Solutions of carboxymethylthymine dimer 1 were irradiated with 300 nm light in the presence of antibody; and dimer cleavage was assayed spectrophotometrically as follows. Deoxygenated solutions of thymine dimer (5-300 μM) and antibody (3 μM) in 100 mM NaCl, 10 mM phosphate buffer, pH 7.5 were irradiated at 18°-20° C. in a 1 mL quartz cuvette. All photolysis experiments were performed with a 1000 W high pressure Hg-Xe lamp equipped with a Photon Technologies International, Inc. Model Q5001 Quantacount electronic actinometer and a diffraction grating monochromator blazed at 500 nm. A bandpass of 3 nm was used for both kinetic and photon counting experiments. […] Monomer formation was assayed spectrophotometrically at fixed time intervals (λmax =272 nm, log ε=3.90).

Substrate in data set [7]: O=C(CCCCNc1ccc([N+](=O)[O-])cc1[N+](=O)[O-])Oc1ccc2ccc(=O)oc2c1
The data set can be described thus: Hydrolysis of DNP coumarin esters 1-3 by Fv. It is filed as biochemical, murine. Conditions: other: pH 6.8, 25° C. As to the method:
as §1, §2

Substrate in data set [8]: O=C(CCNc1ccc([N+](=O)[O-])cc1[N+](=O)[O-])Oc1ccc2ccc(=O)oc2c1
The data set can be described thus: Hydrolysis of DNP coumarin esters 1-3 by Fv. The format is biochemical, murine. Conditions: other: pH 6.8, 25° C. As to the method: as §1, §2

T3 sequence (P01729 20-129, one chain of several): as the sequence (P01729 20-129) above

For `CC(=O)CC(F)c1ccc([N+](=O)[O-])cc1` (racemic) [substrate 1, (R,S) 4-Fluoro-4-p-nitro phenylbutan-2-one], the kcat in [1] (pH 5.5) came out at 0.00138 s⁻¹; in [1] (pH 5.75), 0.00183 s⁻¹; in data set [1] (pH 6.0, 37° C.) it was 0.00313 s⁻¹; in data set [1] (pH 6.5), 0.005 s⁻¹; in data set [1] (pH 7.5) it was 0.00717 s⁻¹. In data set [1] (pH 6.0, 37° C.), the Km stood at 182 µM.
For the molecule `CC(=O)Oc1ccc([N+](=O)[O-])cc1[N+](=O)[O-]` [DNP-acetate], the “binding of substrate (fluorescence quenching)” value in [2] is reported as “did not bind the substrate with appreciable affinity”.
As for `O=C(O)CNc1ccc([N+](=O)[O-])cc1[N+](=O)[O-]` [DNP-glycine, N-DNP-glycine], binding on underivatized MOPC 315 was characterised by a dissociation constant (Kd) of 5 µM. The molecule further displayed a Ki in data set [3] of 8 µM.
For the molecule `O=C(CCCCCNc1ccc([N+](=O)[O-])cc1[N+](=O)[O-])Oc1ccc2ccc(=O)oc2c1` [compound 2], the “kcat (Table 2, Fv(315))” value in data set [4] worked out at 0.005 min. Further, in data set [5], the “kcat (Table 2, Fv(Y34HL))” value was 0.015 min.
For `O=C(CCNc1ccc([N+](=O)[O-])cc1[N+](=O)[O-])Oc1ccc2ccc(=O)oc2c1` [compound 3], in [5], the “kcat (Table 2, Fv(Y34HL))” value is reported as under 0.005 min.
For the molecule `C[C@]12C(=O)NC(=O)N(CC(=O)O)[C@H]1[C@H]1N(CC(=O)O)C(=O)NC(=O)[C@]12C` [dimer 1, carboxymethylthymine-(cis,syn)cyclobutane dimer], the “kcat /Km” value in data set [6] (300 nm irradiation, pH 7.5) stood at 3000 M⁻¹ s⁻¹. Also, in data set [6] (300 nm irradiation, pH 7.5, 18°-20° C.), the Km is 6.5 µM. For the same molecule, in data set [6] (300 nm, incident flux 1.26×10^-7 einsteins min^-1, pH 7.5, 18°-20° C.), the turnover number (kcat) came to 0.02 s⁻¹.

B1: MOPC315 Fv variant Fv(Y34HL), Tyr 34L to His (Mus musculus; Y53H) (protein)
chain 1: QAVVTQESALTTSPGGTVILTCRSSTGAVTTSNHANWIQEKPDHLFTGLIGGTSNRAPGVPVRFSGSLIGDKAALTITGAQTEDDAMYFCALWFRNHFVFGGGTKVTVLGQPKST
chain 2: DVQLQESGPGLVKPSQSLSLTCSVTGYSITSGYFWNWIRQFPGNKLEWLGFIKYDGSNGYNPSLKNRVSITRDTSENQFFLKLNSVTTEDTATYYCAGDNDHLYYFDYWGQGTTLTVSS
notes: Antibody-derived VH was prepared by denaturing ion exchange chromatography of authentic MOPC315 Fv, obtained from pepsin digestion of purified IgA; lambda cII fusion with Factor Xa site (IleGluGlyArg) (N, cleaved yes); made in house; host or cells: VL: E. coli MZ1 (cII fusion, inclusion bodies); VH: pepsin-cleaved MOPC315 IgA from mouse ascites
On to B1, for which, in [7], the Km is 2.2 ± 0.2 µM, the kcat is 0.003 ± 0.0005 s⁻¹ and the kcat/Km is on record as 8.2×10^4 m^-1 min^-1. The turnover number (kcat) in data set [8] came out at 8.3e-05 s⁻¹.

In general, kcat refers to the number of substrate molecules converted per active site and unit of time at saturation. What is called Km is the concentration of substrate that gives half-maximal velocity. What is called Kd is a measure of binding affinity in units of concentration. A lower Kd goes with a tighter complex. A word on the Ki: it is a measure of affinity in units of concentration, obtained from inhibition or displacement. High values mean lower affinity, low ones higher affinity.
